Consider two compounds from patent US6992215B2, “Thiol-based NAALADase inhibitors” (Guildford Pharmaceuticals Inc., priority 2001, dated 2006).

For experiment [1], the system named is transgenic HD mice of the N171–82Q strain. The experiment is described as follows: Huntington's disease transgenic mouse model, behavioral testing (rotarod, locomotion). The format is in vivo. The note with it: FIG. 42. The protocol:
Transgenic HD mice of the […]-[…] strain and non-transgenic littermates were treated with NAALADase inhibitor Compound B (30 mg/kg) or a vehicle from 10 weeks of age. The mice were placed on a rotating rod (“rotarod”). The length of time at which the mouse fell off the rotarod was recorded as a measure of motor coordination. […] The treatment with Compound B had no effect on the rotarod performance of normal non-HD mice. The total distance traveled by the mice was also recorded as a measure of overall locomotion.
(Falling from the rotarod earlier than controls is read as motor impairment.)

In experiment [2] the test system is transgenic HD mice (N171–82Q). The experiment is described as follows: Huntington's disease transgenic mouse model, survival. The experiment is classed as in vivo. On the procedure: The effects of Compound B and vehicle on the survival of transgenic HD mice (N171–82Q) were evaluated. Thirteen mice (six male and seven female) were assigned to the Compound B treatment group, and fourteen mice (six male and eight female) were assigned to the vehicle treatment group. Treatment was continued until all the mice died.

Experiment [3] has as its system rats with unilaterally transected optic nerve. Briefly: Optic nerve transection (optic nerve fiber counting). The format is in vivo, Rattus norvegicus. The note with it: for FIBER NUMBER / PERCENT DIFFERENCE (fiber number between transected eye and normal eye): 10 mg/kg i.p. daily. The protocol: (§1) All experiments complied with the Association for Research in Vision and Ophthalmology Statement for the Use of Animals in Ophthalmic and Vision Research. 82 male Brown Norway rats (Rattus norvegicus), each weighing approximately 250 gm, were treated using procedures approved by the Animal Care Committee of the Johns Hopkins University School of Medicine. The rats were housed with a 12 hour light/12 hour dark cycle and fed ad libitum.
OPTIC NERVE TRANSECTION: The optic nerve was transected unilaterally in 26 rats under intraperitoneal pentobarbital anesthesia. The conjunctiva was opened with scissors and the optic nerve exposed by traction on extraocular muscles. The transection was performed with microscissors 5 mm posterior to the globe, with specific attention to avoidance of injury to major ocular blood vessels. Immediately after transection, the retina was examined ophthalmoscopically to assure that the retinal arterial blood supply was not disrupted. The conjunctiva was closed with absorbable suture and the eye dressed with antibiotic ointment. Beginning on the day of transection, the rats were treated daily with intraperitoneal injections of either a vehicle (9 rats with 50 mM HEPES-buffered saline) or a NAALADase inhibitor (8 rats with 10 mg/kg of Compound A and 9 rats with 10 mg/kg of Compound B). 5 saline treated rats, 3 Compound A treated rats and 4 Compound B treated rats were sacrificed at 2 weeks, and the remaining rats at 4 weeks, after transection.
(§2) OPTIC NERVE COUNTING: The rats were sacrificed by exsanguination under deep pentobarbital anesthesia. They were perfused through the heart with 2% paraformaldehyde/2% glutaraldehyde in 0.1 M phosphate buffer, pH 7.2, and the eyes with attached optic nerves were removed. A cross-section of the optic nerve from both experimental (glaucoma or transection) and control eyes was removed 1.5 mm posterior to the globe, 1 mm in thickness, and post-fixed in 2% osmium tetroxide in buffer. These were processed into epoxy resin, sectioned at 1 micron and stained with toluidine blue.
(§3) The area of the optic nerve cross-section was measured by outlining its outer border at 10× magnification on an image analysis system (Universal Imaging Corp., Westchester, Pa.) with Synsys digital camera and Metamorph software. Three area measurements were taken and the mean value was determined. To measure the density and fiber diameter distributions, images were captured with a 100× phase contrast objective from 10 different areas of each nerve. These were edited to eliminate non-neural objects and the size of each axon internal to the myelin sheath (its minimum diameter) and the density of axons/square mm were calculated for each image and nerve. The mean density was multiplied by total nerve area to yield fiber number for each nerve. The total fiber number in glaucoma or transection nerves was compared to the normal, fellow eye of each rat to yield a percent loss value. The number of axons counted among the 10 images was an approximately 20% sample of the 80–90,000 axons in normal rat nerves. The person measuring axon number was masked to the protocol conducted on the nerves.

For experiment [4], the system named is rats with unilateral elevation of intraocular pressure. The experiment is described as follows: Experimental rat glaucoma (IOP elevation, optic nerve fiber counting). The experiment is classed as in vivo. The note with it: for FIBER NUMBER / PERCENT DIFFERENCE (fiber number between glaucoma and normal eye): 10 mg/kg i.p. daily. The protocol: as §1
EXPERIMENTAL GLAUCOMA: Unilateral elevation of intraocular pressure (“IOP”) was produced in 56 rats by microinjection of hypertonic saline into episcleral veins, following procedures described in Morrison, J. et al., IOVS (March 1998) 39:526–531. Beginning on the day of IOP elevation, the rats were treated daily with intraperitoneal injections of either a vehicle (23 rats with 50 mM HEPES-buffered saline) or a NAALADase inhibitor (11 rats with 10 mg/kg of Compound A and 22 rats with 10 mg/kg of Compound B). 11 saline treated rats, 11 Compound A treated rats and 11 Compound B treated rats were sacrificed at 8 weeks, and the remaining rats at 12 weeks, after initial IOP elevation.
as §2, §3

Experiment [5] concerns STZ-diabetic rats. Briefly: Diabetic neuropathy in STZ model (motor and sensory nerve conduction velocity). The format is in vivo. On the procedure:
Motor and sensory nerve conduction velocity was also measured in STZ-diabetic animals after 4, 8 and 12 weeks of treatment (see De Koning et al., supra, for a description of the experimental method). Briefly, stimulating needle electrodes were inserted close to the sciatic and tibial nerves with recording electrodes being placed subcutaneously over the distal foot muscles, in anesthetized rats.

Experiment [6] concerns STZ-induced diabetic rats. The experiment is described as follows: Neuropathic pain in STZ model (Hargreaves thermal nociception). The note with it: 10 mg/kg i.p. daily, treatment started 45 days post-STZ. The experiment is classed as in vivo, Sprague-Dawley rats. On the procedure:
Male Sprague-Dawley rats (200–225 g) were rendered diabetic by intravenous administration of streptozotocin (“STZ”, 70 mg/kg in phosphate buffered saline). Diabetic animals were divided into five groups: one group receiving Compound A (10 mg/kg or 1 mg/kg), Compound D (10 mg/kg or 1 mg/kg) or vehicle. Another group of animals (non-STZ treated) served as non-diabetic controls. Drug/vehicle treatment was started in diabetic animals 45 days post-STZ administration. STZ-induced diabetic rats were tested for sensitivity to a heat source as soon as blood glucose levels rose to 320 mg/dl or above (30 days post STZ). The rats were then acclimated to a Hargreaves apparatus and thermal nociception was monitored using an infrared heat source directed into the dorsal surface of the hindpaw, and the time taken for the animal to remove its paw noted to the nearest 0.1 seconds (see Hargreaves et al., supra, for detailed experimental method). The intensity of the beam source was adjusted such that the mean latency for control animals (non-STZ treated) was approximately 10 seconds. Each animal was tested 8 times and the mean difference score (between mean non-diabetic control latency and mean diabetic latency) are graphically presented in FIGS. 7A and 7B.

For the next experiment, the system named is BB/W diabetic rats. Briefly: Progression of neuropathic pain and nerve conduction deficits in BB/W model. The experiment is classed as in vivo. An excerpt:
Male BB/W rats (BRI, Mass) spontaneously develop a cell mediated autoimmune destruction of pancreatic B cells, resulting in onset of insulin-dependent (Type I) diabetes (Guberski 1994). […] This renders them valuable for experimental trials of new compounds for future treatments of this major disorder. In the present study, Compound D and Compound A were examined for their ability to alter the progression of diabetic neuropathy. […] Another group of non-diabetic rats also receiving vehicle were tested. All animals were continuously monitored for body weight, urine volume, blood sugar and glycated haemoglobin. In the first month of the study, all animals were tested for thermal nociception in a Hargreaves apparatus, weekly. After the first month this was done biweekly and then monthly. The testing consists of directing an infrared heat source onto the dorsal surface of the rat hindpaw and noting the time taken for the animal to remove its paw (see Hargreaves et al., supra, for a description of the experimental method). Each animal was tested 8 times and the mean withdrawal latency noted.
Nerve conduction velocity was also measured every two weeks through the first eight weeks of treatment and every month thereafter through to the six months of treatment (see De Koning et al., Peptides, Vol. 8, No. 3, pp. 415–22 (1987) for a description of the experimental method). […] This was apparent starting at 8 weeks of treatment and persisted to a similar degree through to the six month termination point of the study.

Experiment [7] deals with STZ-diabetic rats. The experiment is described as follows: Reversal of diabetic neuropathy in STZ model, delayed dosing. The experiment is classed as in vivo. The protocol: Rats (200 to 225 g) were injected with STZ (70 mg/kg) into the tail vein. Diabetes (>350 mg/dl) was confirmed in all rats, 4 weeks after STZ administration. Rats were left untreated until 35 to 49 days after STZ. Compound D (1, 3, or 10 mg/kg), Compound E (10 mg/kg), or vehicle were dosed daily p.o. following confirmation of hyperalgesia and/or nerve conduction velocity deficits. In separate experiments, onset of treatment was delayed until 60 to 90 days after STZ administration. Nerve conduction velocity or withdrawal response to thermal stimulation of hind paws was measured at intervals, usually bi-weekly for thermal response and monthly for nerve conduction velocity.
Sensory and motor nerve conduction velocities were evaluated using the method of De Koning and Gispen (Peptides 8: 415–422, 1987). Electrophysiological evaluation was carried out within one hour of dosing. Animals were anesthetized with isoflurane and stimulating needle electrodes were inserted close to the sciatic nerve at the sciatic notch and the tibial nerve near the ankle. Recording electrodes were placed over the foot muscles. Stimuli were applied and responses recorded. Motor and sensory nerve conduction velocities were calculated by measuring the distance between the sciatic notch and ankle sites, and the latency between the M-wave and the H-reflex.
Animals were acclimated to the apparatus for at least 5 min. An infra-red source was placed under below the plantar surface of the rat hind-paw. The intensity of the source was adjusted so that latency for normal rats was about 10 secs. Animals were tested for thermal response latency according to the method of Hargreaves et al (Pain 77–88, 1988). Each animal was tested 8 times (4 each hind limb) and the latency of response recorded automatically to nearest 0.1 sec. An average of the last 4 measurements for each paw was calculated (8 total measurements) and noted for each rat.

In the case of `O=C(O)CCC(CCCS)C(=O)O` (centres unmarked) [Compound B, 2-(3-sulfanylpropyl)pentanedioic acid], the rotarod performance entry in experiment [1] (normal non-HD mice, 30 mg/kg) was “no effect”. For the same compound, in experiment [1] (transgenic HD mice, 30 mg/kg from 10 weeks of age), the “rotarod performance (time on the rotarod) versus vehicle” value is “stayed longer on the rotarod”. Besides, in experiment [2] (female mice, p-value=0.03, FIG. 46), the “survival time versus vehicle treated counterparts” value is “significantly prolonged survival time”. Further, in experiment [2] (p-value=0.07), the “difference in median survival time versus vehicle treatment group” value is “not statistically significant”. This compound also gave a median survival time in experiment [2] (transgenic HD mice, male and female, FIG. 44) of 184 days. In addition, the “remaining axons relative to the saline-treated rats” value in experiment [3] (2 weeks after transection) is reported as “twice”. For the same compound, the “FIBER NUMBER” value in experiment [3] (2 weeks survival) is 19,550 ± 11,383; in experiment [3] (4 weeks survival), 5,162 ± 5,017; in experiment [4] (8 week group), 80785 ± 2121; in experiment [4] (12 week group) it was 90504 ± 1718. Also, the “PERCENT DIFFERENCE (fiber number between transected eye and normal eye)” value in experiment [3] (2 weeks survival) came out at 75.3 ± 14.8%; in experiment [3] (4 weeks survival), 93.4 ± 6.2%. Further, the “PERCENT DIFFERENCE (fiber number between glaucoma and normal eye)” value is on record as −0.82 ± 2.97% in experiment [4] (8 week group, positive value indicates fewer fibers in the glaucoma eye) and −3.21 ± 2.86% in experiment [4] (12 week group). The “mean percent fiber loss versus saline-treated control groups” value in experiment [4] (at 8 weeks, p=0.05 for Compound A and p=0.02 for Compound B) is given as “statistically less”.

As for `O=C(O)CCC(CCS)C(=O)O` (centres unmarked) [Compound D, 2-(2-sulfanylethyl)pentanedioic acid], the “treatment time after which increase of motor and sensory nerve conduction velocities was significant” value in the experiment with STZ-diabetic rats [5] (10 mg/kg treatment group) worked out at 12 weeks. In addition, the “motor and sensory nerve conduction velocities versus diabetic controls” value with STZ-diabetic rats [5] (either dose (10 mg/kg or 1 mg/kg), FIGS. 10A and 10B) is “increased both motor and sensory nerve conduction velocities”. Also, in experiment [6], the “hyperalgesic response (withdrawal latency difference score)” value was “completely reversed”. In addition, the “nerve conduction velocity deficits versus diabetic vehicle controls” value with BB/W diabetic rats (10 mg/kg daily, from 8 weeks to six months of treatment, FIG. 12) is recorded as “significantly less severe nerve conduction deficits”. For the same compound, the “withdrawal latency versus diabetic vehicle-treated rats” value with BB/W diabetic rats (10 mg/kg i.p. daily, starting after 4 weeks and through six months of treatment, FIG. 11) is given as “longer withdrawal latencies”. The “neuropathic hyperalgesia (withdrawal latency difference scores)” value in the experiment with STZ-diabetic rats [7] (daily p.o., treatment started 5 weeks post STZ, within two weeks of treatment, FIG. 31) is listed as “reversed towards normal”. For the same compound, the “motor nerve conduction velocity” value in the experiment on STZ-diabetic rats [7] (daily p.o., within 8 weeks of dosing, persisted through 12 weeks, FIG. 32) is listed as “reversed the motor nerve conduction velocity towards normal”. In the experiment with STZ-diabetic rats [7] (lower doses 1 and 3 mg/kg, treatment 7 weeks post STZ, even 8 weeks after dosing), the motor nerve conduction result is “remained unimproved”. Also, in the experiment on STZ-diabetic rats [7] (lower doses 1 and 3 mg/kg, treatment 7 weeks post STZ, within 4 weeks of treatment), the sensory nerve conduction entry is on record as “significantly improved towards normal”. Besides, the neuropathic pain abnormalities result in the experiment with STZ-diabetic rats [7] (lower doses 1 and 3 mg/kg, treatment initiated 7 weeks post STZ, FIG. 34) was “Significant reduction in pain abnormalities”. The “sensory and motor nerve conduction velocity deficits” value with STZ-diabetic rats [7] (rats left untreated until 60 days after STZ, external CRO, FIGS. 37 and 38) is reported as “Partial reversal of both deficits”.
